Series [1] concerns the target T1, PAR-2 (Homo sapiens, UniProt P55085). The settings on record: cited from earlier work.
Series [2] has as its target T1, PAR-2. The settings on record: cited from earlier work. This is another data set of the same source.
Series [3] has as its system sensory neurons. The format is cell-based, rat.
Series [4] deals with co-cultured sensory neurons and keratinocytes. The format is cell-based, rat DRG neurons, human keratinocytes.
The subject of series [5] is DRG neurons. It counts as cell-based, rat.
In series [6] the test system is co-cultured DRG neurons and keratinocytes. It counts as cell-based, rat DRG neurons, human keratinocytes.
Series [7] relates to primary human epidermal keratinocytes. The format is cell-based.
Series [8] concerns PAR-2. The format is cell-based, rat.
For series [9] the following is noted: not told; cited from earlier work.
The conditions of series [10]: in vivo, cited from earlier work.

This is an account of results in US12350260B2 (priority 2019, dated 2025).

Values joined by “and” are separate entries in the source; they are usually repeats but may differ in a detail not shown here. Equal entries are not always repeated.

T1 sequence (P55085 26-397): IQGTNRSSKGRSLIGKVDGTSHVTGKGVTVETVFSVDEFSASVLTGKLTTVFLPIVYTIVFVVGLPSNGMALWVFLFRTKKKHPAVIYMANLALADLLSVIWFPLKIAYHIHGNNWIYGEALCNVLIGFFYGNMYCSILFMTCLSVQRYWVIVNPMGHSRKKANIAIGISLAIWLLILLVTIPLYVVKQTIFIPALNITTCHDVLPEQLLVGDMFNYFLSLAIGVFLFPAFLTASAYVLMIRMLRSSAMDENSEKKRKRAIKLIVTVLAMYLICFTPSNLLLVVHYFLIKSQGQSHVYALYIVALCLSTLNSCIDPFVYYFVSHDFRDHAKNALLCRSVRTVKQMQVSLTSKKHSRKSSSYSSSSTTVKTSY

In the case of “2-aminothiazol-4-yl-LIGRL-NH2 ({2‑aminothiazol‑4‑yl}-LIGRL-NH2)”, the “PAR-2 calcium signaling / calcium mobilization” value in [1] is listed as “inhibit”. Further, the ERK1/2 phosphorylation result in [2] is recorded as “inhibit”.

Regarding `COc1ccc(CCN2CCC(Nc3nc4ccccc4n3Cc3ccc(F)cc3)CC2)cc1` [Astemizole], the “PAR-2 calcium signaling / calcium mobilization” value in [1] was “inhibit”. Besides, the ERK1/2 phosphorylation entry in series [2] was “inhibit”.

Regarding `Cl.Cn1cc(C2=C(c3c4n(c5ccccc35)CCC(CN)C4)C(=O)NC2=O)c2ccccc21` (centres unmarked) [BimX, Bisindolylmaleimide X hydrochloride], in [3], the “normalized amplitude values in each phase (FIGS. 9B, 9D, 9F)” value is reported as “No significant modification”; the “normalized percentage of cells responding to PbTx-1 with the first peak” value is given as “did not decrease”; the “normalized percentage of cells responding to PbTx-1 with the second peak” value (“normalized percentage … with the second peak” for short) was determined as 67.7±7.5%. In addition, the “PbTx-1-induced SP release with pre-treatment (normalized levels)” value in [4] was 37.4±5.9%.

With `COc1ccccc1OCCNCC(O)COc1cccc2[nH]c3ccccc3c12` (centres unmarked) [Carvedilol], the “PAR-2 calcium signaling / calcium mobilization” value in [1] was “inhibit”. Moreover, the ERK1/2 phosphorylation entry in [2] was “inhibit”.

On to `CCC(C)[C@H](NC(=O)[C@H](CC1CCCCC1)NC(=O)c1ccno1)C(=O)N1CCC2(CCc3ccccc32)CC1` (some centres unmarked) [GB83], for which, in series [5], the “normalized amplitude of the first peak in responding cells (% of P-CTX-2 alone)” value is recorded as 31.2±4.2%, the “normalized amplitude values of the plateau in responding cells (% of P-CTX-2 alone)” value was 50.1±8.7%, the “normalized percentage of cells responding with a second peak (% of P-CTX-2 alone)” value came out at 16.7±4.1% and the “normalized percentage of cells responding with the first peak (% of P-CTX-2 alone)” value amounted to 34.5±10.5%. Also, in series [5], the “normalized percentage of neurons responding with a plateau (compared to P-CTX-2 alone)” value is 7.9±3.3% and the “normalized second peak amplitude in responding cells (% of P-CTX-2 alone)” value was found to be 27.2±5.0%. Further, the “P-CTX-2-induced SP release, reduced to (% of P-CTX-2 alone)” value in series [6] stood at 15.0±7.9%. In [3], the “normalized percentage of cells responding to PbTx-1 with the first peak” value turned out to be 75.7±7.28%, the “normalized percentage of cells responding to PbTx-1 with the plateau” value (shortened to “normalized percentage … with the plateau”) turned out to be 37.7±7.7% and the “normalized percentage … with the second peak” value turned out to be 48.9±7.38%. Also, in series [4], the “PbTx-1-induced SP release with pre-treatment (normalized levels)” value is 47±8.2%; the “PbTx-1-induced SP release, decreased to (% of PbTx-1 alone)” value worked out at 40.9±7.4%; the “inhibitory effect on PbTx-1-induced SP release” value was found to be 45.3±6.9%. Further, the “PAR-2 calcium signaling / calcium mobilization” value in series [1] is recorded as “inhibit”.

For `CC[C@H](C)[C@H](NC(=O)[C@H](CC1CCCCC1)NC(=O)c1ccno1)C(=O)N1CCC2(CCc3ccccc32)CC1` [GB88], the “PAR-2 calcium signaling / calcium mobilization” value in series [1] was “inhibit”.

For `Cc1c(C(=O)Nc2cccc(C(F)(F)F)c2)cc(-c2ccccc2)n1CCCN1CCOCC1` [HC-067047], in series [3], the “normalized amplitude values in each phase (FIGS. 9B, 9D, 9F)” value is given as “No significant modification”; the “normalized percentage of cells responding to PbTx-1 with the first peak” value stood at 59.4±11.5%; the “normalized percentage … with the plateau” value came out at 35.0±16.1%; the “normalized percentage … with the second peak” value was found to be 35.6±11.5%. In series [4], the “PbTx-1-induced SP release with pre-treatment (normalized levels)” value was 58.7±14.5% and 41.3±14.5%.

For the molecule `CCOC(=O)N1CCC(=C2c3ccc(Cl)cc3CCc3cccnc32)CC1` [Loratadine], the “PAR-2 calcium signaling / calcium mobilization” value in series [1] is “inhibit”. Further, the ERK1/2 phosphorylation result in [2] was “inhibit”.

As for `CCc1nn(CCCN2CCN(c3cccc(Cl)c3)CC2)c(=O)n1CCOc1ccccc1` [Nefazodone], in [1], the “PAR-2 calcium signaling / calcium mobilization” value is “inhibit”. The ERK1/2 phosphorylation result in [2] is recorded as “inhibit”.

For `NC1=N[C@H](O)[C@H]2[C@H]3O[C@]4(O)O[C@@H]([C@@H](O)[C@@]2(N1)[C@@H]4O)[C@]3(O)CO` [TTX, Tetrodotoxin], in series [5], the “normalized amplitude of the first peak in responding cells (% of P-CTX-2 alone)” value was 53.6±8.0% and 47.8±7.2%; the “normalized amplitude values of the plateau in responding cells (% of P-CTX-2 alone)” value was 53.2±1.3% and 84.8±6.6%; the “normalized percentage of cells responding with the first peak (% of P-CTX-2 alone)” value was 34.9±13.4% and 41.6±12.5%; the “normalized second peak amplitude in responding cells (% of P-CTX-2 alone)” value was 33.7±3.5% and 61.9±16.1%. In series [7], the “average ratio of the P-CTX-2-mediated calcium signal (ΔF/F0)” value is reported as 0.34±0.11 and the “decrease of the average ratio of the P-CTX-2-mediated calcium signal” value was “approximately 70%”. Besides, the “P-CTX-2-induced SP release, reduced to (% of P-CTX-2 alone)” value in series [6] was 29.3±7.3% and 53.1±11.3%. In series [3], the “normalized amplitude of the second peak” value is 3.4±3.4%; the “normalized percentage of cells responding to PbTx-1 with the first peak” value was 65.20±14.50% and 34.40±21.24%. In [8], the “membrane expression of PAR-2” value was 95.3±4.9% and 92.7±1.3%.

On to `C1CCC[C@H]2CCCN3CC[C@@H](CCCCCC[C@@H]4CCCN5CC[C@@H](CC1)O[C@@H]45)O[C@@H]23` [Xestospongin C], for which, in series [3], the “normalized amplitude values in each phase (FIGS. 9B, 9D, 9F)” value was “No significant modification”; the “normalized percentage of cells responding to PbTx-1 with the first peak” value is recorded as “did not decrease”; the “normalized percentage … with the second peak” value came out at 62.5±14.7%. Also, the “PbTx-1-induced SP release with pre-treatment (normalized levels)” value in series [4] came out at 35.5±9.7%.

Consider `CC(C)C[C@H](NC(=O)[C@H](Cc1ccccc1)NC(=O)OCc1ccccc1)C(=O)C=O` [Z-FL-COCHO, Cbz-Phe-Leu-COCHO], for which the “P-CTX-2-induced SP release, reduced to (% of P-CTX-2 alone)” value in series [6] worked out at 13.1±6.1%. Also, in series [3], the “normalized percentage of cells responding to PbTx-1 with the first peak” value was determined as 48.2±11.1%, the “normalized percentage … with the plateau” value was 41.0±13.8% and the “normalized percentage … with the second peak” value is recorded as 45.2±11.1%. Further, the “PbTx-1-induced SP release, decreased to (% of PbTx-1 alone)” value in series [4] was determined as 80.4±4.1%. Further, the cell permeability result in series [9] is listed as “poorly cell-permeant”.

Turning to `OC[C@@H](O)[C@@H](O)[C@H](O)[C@H](O)CO` [mannitol], the “effectiveness in severe cases of poisoning supported early” value in [10] (iv) was “effectiveness”. In addition, the “effectiveness in non-severe forms of intoxication” value in [10] is recorded as “not effective”.
